Legend:
Assay in all cases: concentration in plasma after dosing
rat [1] = conditions: dosed: Novaluron, 0.4000000000 mg/kg, iv, male, Sprague-Dawley
rat [2] = conditions: dosed: Novaluron, 2.0000000000 mg/kg, oral, male, Sprague-Dawley
rat [3] = conditions: dosed: Novaluron, 2.0000000000 mg/kg, oral, male, Sprague-Dawley; remark: listed apart in the source
rat [4] = conditions: dosed: Novaluron, 0.4000000000 mg/kg, iv, male, Sprague-Dawley; remark: listed apart in the source
rat [5] = conditions: male, Sprague-Dawley
rat [6] = conditions: dosed: Novaluron, 2.0000000000 mg/kg, oral, male, Sprague-Dawley; remark: listed apart in the source
rat [7] = conditions: dosed: Cyclanilide, 0.2000000000 mg/kg, iv, male, Sprague-Dawley
rat [8] = conditions: dosed: Cyclanilide, 1.0000000000 mg/kg, oral, male, Sprague-Dawley
rat [9] = conditions: dosed: Cyclanilide, 0.2000000000 mg/kg, iv, male, Sprague-Dawley; remark: listed apart in the source
rat [10] = conditions: dosed: Cyclanilide, 1.0000000000 mg/kg, oral, male, Sprague-Dawley; remark: listed apart in the source
rat [11] = conditions: dosed: Cyclanilide, 1.0000000000 mg/kg, oral, male, Sprague-Dawley; remark: listed apart in the source
rat [12] = conditions: dosed: Cyclanilide, 0.2000000000 mg/kg, iv, male, Sprague-Dawley; remark: listed apart in the source

O=C(NC(=O)c1c(F)cccc1F)Nc1ccc(OC(F)(F)C(F)OC(F)(F)F)c(Cl)c1 (configuration not stated) [Novaluron]
concentration in plasma [µg/mL]
Conditions	rat [1]	rat [2]	rat [3]	rat [4]	rat [6]
0.25 h	–	0.00518	0.00995	–	0.014
0.5 h	0.125	0.0253	0.024	0.202	0.0377
1 h	0.112	0.0704	0.0499	0.191	0.075
2 h	0.0683	0.135	0.063	0.12	0.165
4 h	0.0327	0.151	0.132	0.0759	0.149
5 min	0.241	–	–	0.283	–
8 h	0.0314	0.148	0.0891	0.0347	0.191
10 min	0.0432	–	–	0.188	–
12 h	0.0116	0.172	0.117	0.0217	0.129
24 h	0.00864	0.0443	0.0815	0.00978	0.0596
48 h	–	0.0298	0.035	0.00504	0.0407
72 h	–	0.0146	0.0162	0.0051	0.0229

rat [5], dosed: Novaluron
Conditions	concentration in plasma [µg/mL]
0.25 h, 2.0000000000 mg/kg, oral	0.00287
0.5 h, 0.4000000000 mg/kg, iv	0.194
0.5 h, 2.0000000000 mg/kg, oral	0.0238
1 h, 0.4000000000 mg/kg, iv	0.176
1 h, 2.0000000000 mg/kg, oral	0.0705
2 h, 0.4000000000 mg/kg, iv	0.188
2 h, 2.0000000000 mg/kg, oral	0.137
4 h, 0.4000000000 mg/kg, iv	0.121
4 h, 2.0000000000 mg/kg, oral	0.168
5 min, 0.4000000000 mg/kg, iv	0.252
8 h, 0.4000000000 mg/kg, iv	0.0483
8 h, 2.0000000000 mg/kg, oral	0.199
10 min, 0.4000000000 mg/kg, iv	0.161
12 h, 0.4000000000 mg/kg, iv	0.0218
12 h, 2.0000000000 mg/kg, oral	0.141
24 h, 0.4000000000 mg/kg, iv	0.0159
24 h, 2.0000000000 mg/kg, oral	0.0532
48 h, 0.4000000000 mg/kg, iv	0.00627
48 h, 2.0000000000 mg/kg, oral	0.0253
72 h, 0.4000000000 mg/kg, iv	0.0028
72 h, 2.0000000000 mg/kg, oral	0.0214

O=C(O)C1(C(=O)Nc2ccc(Cl)cc2Cl)CC1 [Cyclanilide]
concentration in plasma [µg/mL]
Conditions	rat [7]	rat [8]	rat [9]	rat [10]	rat [11]	rat [12]
0.25 h	–	1.14	–	0.869	0.1	–
0.5 h	1	0.646	0.727	1.06	1.12	0.972
1 h	0.744	0.801	0.91	0.808	1.21	0.639
2 h	0.364	0.568	0.416	0.575	0.918	0.475
4 h	0.222	0.464	0.262	0.482	0.827	0.251
5 min	1.52	–	1.56	–	–	1.73
8 h	0.0719	0.336	0.0811	0.2	0.507	0.077
10 min	1.2	–	1.4	–	–	2.25
12 h	0.0688	0.284	0.0989	0.184	0.293	0.0657
24 h	0.0077	0.0187	0.0065	0.0396	0.101	0.008
48 h	0.0031	0.0015	0.0008	–	0.0013	0.0021
72 h	–	0.0013	0.0012	–	0.0012	0.0017

rat [5], dosed: Cyclanilide
Conditions	concentration in plasma [µg/mL]
0.25 h, 1.0000000000 mg/kg, oral	1.72
0.5 h, 0.2000000000 mg/kg, iv	1.14
0.5 h, 1.0000000000 mg/kg, oral	1.47
1 h, 0.2000000000 mg/kg, iv	0.982
1 h, 1.0000000000 mg/kg, oral	1.15
2 h, 0.2000000000 mg/kg, iv	0.553
2 h, 1.0000000000 mg/kg, oral	0.78
4 h, 0.2000000000 mg/kg, iv	0.412
4 h, 1.0000000000 mg/kg, oral	0.518
5 min, 0.2000000000 mg/kg, iv	1.96
8 h, 0.2000000000 mg/kg, iv	0.156
8 h, 1.0000000000 mg/kg, oral	0.617
10 min, 0.2000000000 mg/kg, iv	1.78
12 h, 0.2000000000 mg/kg, iv	0.0841
12 h, 1.0000000000 mg/kg, oral	0.234
24 h, 0.2000000000 mg/kg, iv	0.0289
24 h, 1.0000000000 mg/kg, oral	0.0249
48 h, 0.2000000000 mg/kg, iv	0.0025
48 h, 1.0000000000 mg/kg, oral	0.001
72 h, 0.2000000000 mg/kg, iv	0.0032
72 h, 1.0000000000 mg/kg, oral	0.0015

Source: EPA's CvTdb concentration-time database (doi:10.1093/toxsci/kfy020)
